pIC50: −log10 of the molar value.
Key:
[1] = target: T1, Cytochrome P450 1A2 (Homo sapiens, UniProt P05177); assay: Inhibition of recombinant human CYP1A2 expressed in insect cells using EOMCC as substrate pretreated for 10 mins followed by substrate addition measured every minute for 15 mins in presence of NADP+ by fluorescence assay; assay type: ADME
T1 sequence (P05177 whole entry): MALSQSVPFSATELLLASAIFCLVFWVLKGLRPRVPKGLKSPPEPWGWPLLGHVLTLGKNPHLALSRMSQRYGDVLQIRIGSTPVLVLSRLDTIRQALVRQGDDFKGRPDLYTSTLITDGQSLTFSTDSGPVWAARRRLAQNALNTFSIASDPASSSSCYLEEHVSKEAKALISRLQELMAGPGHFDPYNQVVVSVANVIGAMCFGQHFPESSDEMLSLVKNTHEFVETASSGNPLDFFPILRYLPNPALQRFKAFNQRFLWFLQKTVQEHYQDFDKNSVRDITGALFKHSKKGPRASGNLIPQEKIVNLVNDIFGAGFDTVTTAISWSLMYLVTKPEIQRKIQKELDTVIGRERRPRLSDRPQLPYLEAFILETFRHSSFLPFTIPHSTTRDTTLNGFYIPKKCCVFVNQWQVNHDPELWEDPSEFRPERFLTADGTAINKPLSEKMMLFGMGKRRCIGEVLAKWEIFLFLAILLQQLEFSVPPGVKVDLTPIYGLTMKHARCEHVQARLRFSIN

[2] = target: Cytochrome P450 3A4 (Homo sapiens, UniProt P08684); assay: Inhibition of recombinant human CYP3A4 expressed in insect cells using DBOMF as substrate pretreated for 10 mins followed by substrate addition measured every minute for 15 mins in presence of NADP+ by fluorescence assay; assay type: ADME
[3] = target: T2, CYP1A2 (Homo sapiens, UniProt P05177); assay: Inhibition of recombinant human CYP1A2 expressed in insect cells at <10 uM using EOMCC as substrate pretreated for 10 mins followed by substrate addition measured every minute for 15 mins in presence of NADP+ by fluorescence assay relative to control; assay type: ADME; conditions: probe EOMCC
T2 sequence (P05177 whole entry): T1 sequence (P05177 whole entry)

[4] = target: T3, CYP3A4 (Homo sapiens, UniProt P08684); assay: Inhibition of recombinant human CYP3A4 expressed in insect cells at 100 uM using DBOMF as substrate pretreated for 10 mins followed by substrate addition measured every minute for 15 mins in presence of NADP+ by fluorescence assay relative to control; assay type: ADME; conditions: probe DBOMF
[5] = target: T2, CYP1A2; assay: Inhibition of recombinant human CYP1A2 expressed in insect cells at >1 uM using EOMCC as substrate pretreated for 10 mins followed by substrate addition measured every minute for 15 mins in presence of NADP+ by fluorescence assay relative to control; assay type: ADME; conditions: probe EOMCC
[6] = target: T2, CYP1A2; assay: Inhibition of recombinant human CYP1A2 expressed in insect cells at 1 uM using EOMCC as substrate pretreated for 10 mins followed by substrate addition measured every minute for 15 mins in presence of NADP+ by fluorescence assay relative to control; conditions: probe EOMCC
[7] = target: T3, CYP3A4; assay: Inhibition of recombinant human CYP3A4 expressed in insect cells at >= 1 uM using DBOMF as substrate pretreated for 10 mins followed by substrate addition measured every minute for 15 mins in presence of NADP+ by fluorescence assay relative to control; conditions: probe DBOMF
[8] = target: T2, CYP1A2; assay: Inhibition of recombinant human CYP1A2 expressed in insect cells at 10 uM using EOMCC as substrate pretreated for 10 mins followed by substrate addition measured every minute for 15 mins in presence of NADP+ by fluorescence assay relative to control; conditions: probe EOMCC
[9] = target: T2, CYP1A2; assay: Inhibition of recombinant human CYP1A2 expressed in insect cells at 20 uM using EOMCC as substrate pretreated for 10 mins followed by substrate addition measured every minute for 15 mins in presence of NADP+ by fluorescence assay relative to control; conditions: probe EOMCC
[10] = target: T2, CYP1A2; assay: Inhibition of recombinant human CYP1A2 expressed in insect cells at 0.01 uM using EOMCC as substrate pretreated for 10 mins followed by substrate addition measured every minute for 15 mins in presence of NADP+ by fluorescence assay relative to control; conditions: probe EOMCC

T3 sequence (P08684 whole entry): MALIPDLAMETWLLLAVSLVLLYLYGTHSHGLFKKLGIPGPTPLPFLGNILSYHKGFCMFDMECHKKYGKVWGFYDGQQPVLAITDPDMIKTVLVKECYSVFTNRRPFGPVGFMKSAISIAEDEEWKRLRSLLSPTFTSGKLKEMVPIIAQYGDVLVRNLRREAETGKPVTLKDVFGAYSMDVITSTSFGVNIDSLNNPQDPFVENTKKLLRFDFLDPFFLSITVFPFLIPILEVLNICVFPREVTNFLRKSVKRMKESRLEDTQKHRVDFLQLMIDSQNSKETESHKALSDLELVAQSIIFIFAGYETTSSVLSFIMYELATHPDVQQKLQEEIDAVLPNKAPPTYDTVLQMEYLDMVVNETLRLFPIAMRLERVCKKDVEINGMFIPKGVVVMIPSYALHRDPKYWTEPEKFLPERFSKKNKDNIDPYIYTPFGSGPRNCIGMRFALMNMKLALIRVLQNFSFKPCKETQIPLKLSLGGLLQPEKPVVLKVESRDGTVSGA
Chain of Cytochrome P450 3A4 (P08684 whole entry): as above

| SMILES | pIC50 [1] | pIC50 [2] | inhibition at 0.25 h [3] | inhibition at 0.25 h, 100 µM [4] | also measured |
| --- | --- | --- | --- | --- | --- |
| COc1ccc(CNc2c3c(nc4cc(Cl)ccc24)CCCC3)cc1OC | 5.07 | 4.86 | < 50% | 90% | – |
| Clc1ccc2c(NCc3ccccn3)c3c(nc2c1)CCCC3 | 6.62 | 5.04 | – | 90% | inhibition at 0.25 h [5]: > 80% |
| COc1ccc(CNc2c3c(nc4ccccc24)CCCC3)cc1OC | 4.48 | 5.43 | < 50% | 90% | – |
| COc1ccc(CCNc2c3c(nc4cc(Cl)ccc24)CCCC3)cc1OC | 4.65 | – | < 50% | – | – |
| O=c1cc(-c2ccccc2)oc2c1ccc1ccccc12 [ALPHA-NAPHTHOFLAVONE] | – | – | – | – | inhibition at 0.25 h, 1 µM [6]: > 80% |
| CC(=O)N1CCN(c2ccc(OCC3COC(Cn4ccnc4)(c4ccc(Cl)cc4Cl)O3)cc2)CC1 (configuration not stated) [KETOCONAZOLE] | – | – | – | – | inhibition at 0.25 h [7]: > 85% |
| Nc1c2c(nc3ccccc13)CCCC2 [TACRINE] | 5.82 | – | – | 55% | inhibition at 0.25 h, 1 µM [6]: 45%; inhibition at 0.25 h, 10 µM [8]: 75%; inhibition at 0.25 h, 20 µM [9]: 75%; inhibition at 0.25 h, 0.01 µM [10]: 14% |

— ChEMBL document CHEMBL4017465 (Bioorg Med Chem Lett, 2017)
